{"source": "patent US11352354B2", "about": "“Substituted penta-fused hexa-heterocyclic compounds, preparation method therefor, drug combination and use thereof” (Xiamen University, priority 2017, dated 2022)", "key": {"PIKfyve protein": {"biological_target": "PIKfyve protein (Homo sapiens (Human), UniProt Q9Y2I7)", "sequence (Q9Y2I7 whole entry)": "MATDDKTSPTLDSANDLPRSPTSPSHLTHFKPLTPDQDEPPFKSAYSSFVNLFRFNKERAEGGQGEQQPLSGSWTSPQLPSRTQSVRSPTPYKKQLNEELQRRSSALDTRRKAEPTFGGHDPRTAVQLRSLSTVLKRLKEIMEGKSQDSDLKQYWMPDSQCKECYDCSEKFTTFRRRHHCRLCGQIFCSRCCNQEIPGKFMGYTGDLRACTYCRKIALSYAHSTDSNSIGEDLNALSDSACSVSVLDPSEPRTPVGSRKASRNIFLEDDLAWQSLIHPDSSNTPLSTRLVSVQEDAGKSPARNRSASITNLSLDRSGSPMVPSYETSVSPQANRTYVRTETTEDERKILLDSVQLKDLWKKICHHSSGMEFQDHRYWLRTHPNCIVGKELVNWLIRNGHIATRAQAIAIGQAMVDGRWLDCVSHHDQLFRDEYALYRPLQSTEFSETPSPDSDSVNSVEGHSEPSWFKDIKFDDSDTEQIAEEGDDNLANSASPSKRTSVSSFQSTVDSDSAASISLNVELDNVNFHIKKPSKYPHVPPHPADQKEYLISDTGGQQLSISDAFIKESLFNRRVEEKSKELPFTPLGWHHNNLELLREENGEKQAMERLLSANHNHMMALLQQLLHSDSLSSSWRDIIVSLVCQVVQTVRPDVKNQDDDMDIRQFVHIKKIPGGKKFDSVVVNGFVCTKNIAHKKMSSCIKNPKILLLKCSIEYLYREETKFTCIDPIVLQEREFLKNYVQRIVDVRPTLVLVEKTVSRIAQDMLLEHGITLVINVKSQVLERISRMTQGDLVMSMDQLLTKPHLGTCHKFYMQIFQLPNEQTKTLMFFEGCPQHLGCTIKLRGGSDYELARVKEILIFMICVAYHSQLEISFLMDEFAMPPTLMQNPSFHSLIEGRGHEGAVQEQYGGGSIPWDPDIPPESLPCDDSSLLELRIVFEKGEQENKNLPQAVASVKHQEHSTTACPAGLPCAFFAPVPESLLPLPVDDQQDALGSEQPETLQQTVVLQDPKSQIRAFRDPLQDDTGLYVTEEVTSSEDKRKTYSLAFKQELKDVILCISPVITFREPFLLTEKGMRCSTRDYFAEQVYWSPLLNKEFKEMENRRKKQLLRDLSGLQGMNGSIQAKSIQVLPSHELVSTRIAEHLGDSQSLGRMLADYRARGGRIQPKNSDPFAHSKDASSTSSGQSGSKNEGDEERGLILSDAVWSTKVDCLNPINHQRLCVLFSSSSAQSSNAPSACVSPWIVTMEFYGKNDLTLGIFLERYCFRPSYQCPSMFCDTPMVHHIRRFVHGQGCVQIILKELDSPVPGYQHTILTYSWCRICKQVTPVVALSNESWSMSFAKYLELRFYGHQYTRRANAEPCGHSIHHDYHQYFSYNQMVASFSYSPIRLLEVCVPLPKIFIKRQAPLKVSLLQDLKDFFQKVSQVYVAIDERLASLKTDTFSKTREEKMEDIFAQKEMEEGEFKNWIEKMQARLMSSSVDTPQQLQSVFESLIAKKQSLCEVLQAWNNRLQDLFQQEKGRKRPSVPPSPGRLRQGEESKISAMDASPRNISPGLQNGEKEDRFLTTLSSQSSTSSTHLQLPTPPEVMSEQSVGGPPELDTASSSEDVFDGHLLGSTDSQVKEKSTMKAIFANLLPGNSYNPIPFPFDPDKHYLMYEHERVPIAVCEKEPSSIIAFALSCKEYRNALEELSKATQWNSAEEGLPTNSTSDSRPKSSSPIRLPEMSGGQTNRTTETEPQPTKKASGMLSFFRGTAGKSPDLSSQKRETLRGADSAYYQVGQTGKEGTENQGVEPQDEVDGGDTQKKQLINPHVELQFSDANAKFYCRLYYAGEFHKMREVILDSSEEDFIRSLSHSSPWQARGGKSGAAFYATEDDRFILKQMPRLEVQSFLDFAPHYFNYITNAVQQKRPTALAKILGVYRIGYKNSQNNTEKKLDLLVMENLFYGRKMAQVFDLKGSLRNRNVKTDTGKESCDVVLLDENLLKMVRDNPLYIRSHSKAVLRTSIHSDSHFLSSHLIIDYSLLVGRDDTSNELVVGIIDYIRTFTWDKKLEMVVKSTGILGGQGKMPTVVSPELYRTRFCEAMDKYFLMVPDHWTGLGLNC", "assay": "Dissociation equilibrium constant (Kd) of compound and PIKfyve protein, DiscoverX KINOMEscan", "assay_type": "binding", "details": "eleven 3-fold dilutions, curve fitting", "procedure": "II. Determination of Dissociation Equilibrium Constant (Kd Value) of Compound and PIKfyve Protein\nThe Kd value was determined by DiscoverX's KINOMEscan™ technology according to the following steps:\n1. Preparation of magnetic beads: biotin-labeled small molecule ligand and avidin-coated magnetic beads were allowed to interact at room temperature for 30 minutes, and then added with excess biotin, followed by washing with a blocking solution (1% BSA, 0.05% Tween 20, 1 mM DTT) to remove unbound ligand.\n2. Binding reaction: in a 384 plate, 0.02 mL system, DNA-labeled protein, small molecule ligand-bound magnetic beads, and different concentrations of compound to be tested were mixed in a reaction solution (0.17×PBS, 0.05% Tween 20, 6 mM DTT) at room temperature with shaking for 1 hr, to which was added an eluant (1×PBS, 0.05% Tween 20) for elution. Magnetic beads were resuspended by an eluant (1×PBS, 0.05% Tween 20, 0.5 μM non-biotin-labeled small molecule ligand), and shaken at room temperature for 30 min before separating out the eluant.\n3. Determination of Kd value: the content of protein in the above eluate was determined by qPCR. Eleven 3-fold dilution concentrations were determined for the compound to be tested, with 3 DMSO controls for each concentration, and the Kd value was obtained by curve fitting."}, "JeKo-1 cells": {"system": "JeKo-1 cells", "assay": "Tumor cell growth inhibition by MTS method, JeKo-1", "assay_type": "cell-based", "details": "5 days of culture; for inhibition at 10 µM: read-out: cell growth inhibition rate of compounds at 10 μM", "procedure": "III. Determination of IC50 Value of Compound for Inhibiting Tumor Cell Growth by MTS Method\n1. Cell plating: cells in logarithmic growth phase were counted and inoculated in a 96-well plate (20000 cells per well).\n2. Administrating agent to cell: 10 mM compound mother solution in DMSO was subjected to 3 fold-gradient dilution, to set 8 concentrations, which were then added to various wells, with three replicates for each concentration, and three blank wells (only culture medium) and three negative controls (containing 0.1% DMSO) on each plate.\n3. […] The OD value at 490 nm was measured with microplate reader OD490. The cell growth inhibition rate was calculated by the following formula: Cell growth inhibition rate %=1−(ODexperimental group−ODblank group)/(ODnegative group−ODblank group)×100%\nThe semi-inhibitory concentration IC50 of the compound acting on cell growth was calculated using GradPad Prism 5 software according to the measured cell growth inhibition rate.\nIn the following table it lists the IC50 value or the inhibition rates of some compounds at 10 μM against JeKo-1 cells"}, "MDA-MB-231 cells": {"system": "MDA-MB-231 cells", "assay": "Vacuolation of MDA-MB-231 cells caused by inhibition of compounds on PIKfyve (microscopy)", "assay_type": "cell-based", "details": "MDA-MB-231 cells", "text": "I. Determination of Vacuolation of MDA-MB-231 Cells Caused by Inhibition of Compounds on PIKfyve\nWhen the activity of pikfyve kinase is inhibited, vacuoles will be produced in cytoplasm. By observing the number of vacuoles under a microscope, the ability of compounds to inhibit the activity of pikfyve kinase can be known.\n1. Cell plating: cells in logarithmic growth phase were made into a single cell suspension, counted with a cell counter and diluted to a cell concentration of about 2×10^5/mL. Then, the cells were inoculated into a 12-well plate, and cultured in a 37° C., 5% CO2 incubator.\n3. Vacuolation test: after 24 and 48 hours of culture, photos were taken under an […] to observe the degree of vacuolation.\n(In the table, “+” represents the degree of vacuolation; more “+” indicates more obvious vacuolation; “−” represents no vacuolation)"}}}
{"smiles": "Cc1ccc(C(=O)Nc2cccc(OC(F)(F)F)c2)cc1Nc1nc(-c2ccccc2)c2[nH]ccc2n1", "note": "[V-c-61]", "values": [{"measurement": "Kd", "setting": "PIKfyve protein", "value": "> 30", "unit": "µM"}]}
{"smiles": "COc1ccc(C(F)(F)F)cc1NC(=O)c1ccc(C)c(Nc2nc(-c3ccco3)c3[nH]ccc3n2)c1", "note": "[V-c-52]", "values": [{"measurement": "Kd", "setting": "PIKfyve protein", "value": "> 30", "unit": "µM"}]}
{"smiles": "COc1ccc(C(F)(F)F)cc1NC(=O)c1ccc(C)c(Nc2nc(-c3cccs3)c3[nH]ccc3n2)c1", "note": "[V-c-53]", "values": [{"measurement": "Kd", "setting": "PIKfyve protein", "value": "> 30", "unit": "µM"}]}
{"smiles": "COc1ccc(C(F)(F)F)cc1NC(=O)c1ccc(C)c(Nc2nc(-c3ccccc3)c3[nH]ccc3n2)c1", "note": "[V-c-51]", "values": [{"measurement": "Kd", "setting": "PIKfyve protein", "value": "> 30", "unit": "µM"}]}
{"smiles": "Cc1ccc(NC(=O)c2cccc(C(F)(F)F)c2)cc1Nc1cc(-c2ccncc2)nc2sccc12", "note": "[VIII-a-4]", "values": [{"measurement": "inhibition at 10 µM", "setting": "JeKo-1 cells; Homo sapiens, JeKo-1, 120 h", "value": 17.3, "unit": "%"}, {"measurement": "degree of vacuolation, 1 μM, 24 h", "setting": "MDA-MB-231 cells", "value": "+"}, {"measurement": "degree of vacuolation, 1 μM, 48 h", "setting": "MDA-MB-231 cells", "value": "+"}, {"measurement": "degree of vacuolation, 10 μM, 24 h", "setting": "MDA-MB-231 cells", "value": "+"}, {"measurement": "degree of vacuolation, 10 μM, 48 h", "setting": "MDA-MB-231 cells", "value": "+"}]}
{"smiles": "Cc1ccc(C(=O)Nc2cccc(C(F)(F)F)c2)cc1Nc1nc(-c2cccnc2)nc2c1ccn2C", "note": "[II-b-2]", "values": [{"measurement": "IC50", "setting": "JeKo-1 cells; Homo sapiens, JeKo-1, 120 h", "value": 2.85, "unit": "µM"}, {"measurement": "degree of vacuolation, 1 μM, 24 h", "setting": "MDA-MB-231 cells", "value": "+"}, {"measurement": "degree of vacuolation, 1 μM, 48 h", "setting": "MDA-MB-231 cells", "value": "+"}, {"measurement": "degree of vacuolation, 10 μM, 24 h", "setting": "MDA-MB-231 cells", "value": "+"}, {"measurement": "degree of vacuolation, 10 μM, 48 h", "setting": "MDA-MB-231 cells", "value": "+"}]}
{"smiles": "Cc1ccc(C(=O)Nc2cccc(C(F)(F)F)c2)cc1Nc1nc(-c2ccncc2)nc2ccn(C)c12", "note": "[V-b-4]", "values": [{"measurement": "inhibition at 10 µM", "setting": "JeKo-1 cells; Homo sapiens, JeKo-1, 120 h", "value": 17.2, "unit": "%"}, {"measurement": "degree of vacuolation, 1 μM, 24 h", "setting": "MDA-MB-231 cells", "value": "++"}, {"measurement": "degree of vacuolation, 1 μM, 48 h", "setting": "MDA-MB-231 cells", "value": "++"}, {"measurement": "degree of vacuolation, 10 μM, 24 h", "setting": "MDA-MB-231 cells", "value": "++"}, {"measurement": "degree of vacuolation, 10 μM, 48 h", "setting": "MDA-MB-231 cells", "value": "++"}]}
{"smiles": "Cc1ccc(NC(=O)c2cccc(C(F)(F)F)c2)cc1Nc1nc(-c2cccnc2)nc2[nH]cnc12", "note": "[IV-a-1]", "values": [{"measurement": "inhibition at 10 µM", "setting": "JeKo-1 cells; Homo sapiens, JeKo-1, 120 h", "value": 18.3, "unit": "%"}, {"measurement": "degree of vacuolation, 1 μM, 24 h", "setting": "MDA-MB-231 cells", "value": "+"}, {"measurement": "degree of vacuolation, 1 μM, 48 h", "setting": "MDA-MB-231 cells", "value": "++"}, {"measurement": "degree of vacuolation, 10 μM, 24 h", "setting": "MDA-MB-231 cells", "value": "+"}, {"measurement": "degree of vacuolation, 10 μM, 48 h", "setting": "MDA-MB-231 cells", "value": "++"}]}
{"smiles": "Cc1ccc(C(=O)Nc2cccc(C(F)(F)F)c2)cc1Nc1cc(-c2cccnc2)nc2c1ccn2C", "note": "[I-b-3]", "values": [{"measurement": "IC50", "setting": "JeKo-1 cells", "value": 2.68, "unit": "µM"}, {"measurement": "degree of vacuolation, 1 μM, 24 h", "setting": "MDA-MB-231 cells", "value": "+"}, {"measurement": "degree of vacuolation, 1 μM, 48 h", "setting": "MDA-MB-231 cells", "value": "+"}, {"measurement": "degree of vacuolation, 10 μM, 24 h", "setting": "MDA-MB-231 cells", "value": "++"}, {"measurement": "degree of vacuolation, 10 μM, 48 h", "setting": "MDA-MB-231 cells", "value": "++"}]}
{"smiles": "Cc1ccc(NC(=O)c2cccc(C(F)(F)F)c2)cc1Nc1nc(-c2cccnc2)cn2c(C)cnc12", "note": "[VI-b-7]", "values": [{"measurement": "inhibition at 10 µM", "setting": "JeKo-1 cells; Homo sapiens, JeKo-1, 120 h", "value": 16.5, "unit": "%"}, {"measurement": "degree of vacuolation, 1 μM, 24 h", "setting": "MDA-MB-231 cells", "value": "−"}, {"measurement": "degree of vacuolation, 1 μM, 48 h", "setting": "MDA-MB-231 cells", "value": "−"}, {"measurement": "degree of vacuolation, 10 μM, 24 h", "setting": "MDA-MB-231 cells", "value": "+"}, {"measurement": "degree of vacuolation, 10 μM, 48 h", "setting": "MDA-MB-231 cells", "value": "+"}]}
{"smiles": "Cc1ccc(C(=O)Nc2cccc(OC(F)(F)F)c2)cc1Nc1nc(-c2cccs2)c2[nH]ccc2n1", "note": "[V-c-63]", "values": [{"measurement": "Kd", "setting": "PIKfyve protein", "value": "> 30", "unit": "µM"}]}
{"smiles": "Cc1ccc(C(=O)Nc2cccc(C(F)(F)F)c2)cc1Nc1nc(-c2ccncc2)nc2cc[nH]c12", "note": "[V-a-6]", "values": [{"measurement": "IC50", "setting": "JeKo-1 cells; Homo sapiens, JeKo-1, 120 h", "value": 0.987, "unit": "µM"}, {"measurement": "degree of vacuolation, 1 μM, 24 h", "setting": "MDA-MB-231 cells", "value": "++"}, {"measurement": "degree of vacuolation, 1 μM, 48 h", "setting": "MDA-MB-231 cells", "value": "++"}, {"measurement": "degree of vacuolation, 10 μM, 24 h", "setting": "MDA-MB-231 cells", "value": "++"}, {"measurement": "degree of vacuolation, 10 μM, 48 h", "setting": "MDA-MB-231 cells", "value": "++"}]}
{"smiles": "Cc1ccc(C(=O)Nc2cccc(C(F)(F)F)c2)cc1Nc1nc(-c2cccnc2)nc2cc[nH]c12", "note": "[V-a-5]", "values": [{"measurement": "IC50", "setting": "JeKo-1 cells; Homo sapiens, JeKo-1, 120 h", "value": 3.08, "unit": "µM"}, {"measurement": "degree of vacuolation, 1 μM, 24 h", "setting": "MDA-MB-231 cells", "value": "+++"}, {"measurement": "degree of vacuolation, 1 μM, 48 h", "setting": "MDA-MB-231 cells", "value": "+++"}, {"measurement": "degree of vacuolation, 10 μM, 24 h", "setting": "MDA-MB-231 cells", "value": "++"}, {"measurement": "degree of vacuolation, 10 μM, 48 h", "setting": "MDA-MB-231 cells", "value": "++"}]}
{"smiles": "Cc1ccc(C(=O)Nc2cccc(C(F)(F)F)c2)cc1Nc1nc(-c2ccncc2)nc2[nH]ccc12", "note": "[II-a-4]", "values": [{"measurement": "inhibition at 10 µM", "setting": "JeKo-1 cells; Homo sapiens, JeKo-1, 120 h", "value": 18.7, "unit": "%"}, {"measurement": "degree of vacuolation, 1 μM, 24 h", "setting": "MDA-MB-231 cells", "value": "−"}, {"measurement": "degree of vacuolation, 1 μM, 48 h", "setting": "MDA-MB-231 cells", "value": "−"}, {"measurement": "degree of vacuolation, 10 μM, 24 h", "setting": "MDA-MB-231 cells", "value": "+"}, {"measurement": "degree of vacuolation, 10 μM, 48 h", "setting": "MDA-MB-231 cells", "value": "+"}]}
{"smiles": "Cc1ccc(NC(=O)c2cccc(C(F)(F)F)c2)cc1Nc1cc(-c2cccnc2)nc2sccc12", "note": "[VIII-a-3]", "values": [{"measurement": "IC50", "setting": "JeKo-1 cells; Homo sapiens, JeKo-1, 120 h", "value": 2.01, "unit": "µM"}, {"measurement": "degree of vacuolation, 1 μM, 24 h", "setting": "MDA-MB-231 cells", "value": "++"}, {"measurement": "degree of vacuolation, 1 μM, 48 h", "setting": "MDA-MB-231 cells", "value": "++"}, {"measurement": "degree of vacuolation, 10 μM, 24 h", "setting": "MDA-MB-231 cells", "value": "++"}, {"measurement": "degree of vacuolation, 10 μM, 48 h", "setting": "MDA-MB-231 cells", "value": "++"}]}
{"smiles": "Cc1ccc(C(=O)Nc2cccc(C(F)(F)F)c2)cc1Nc1cc(-c2cccnc2)nc2sccc12", "note": "[VIII-a-7]", "values": [{"measurement": "IC50", "setting": "JeKo-1 cells; Homo sapiens, JeKo-1, 120 h", "value": 3.17, "unit": "µM"}, {"measurement": "degree of vacuolation, 1 μM, 24 h", "setting": "MDA-MB-231 cells", "value": "++"}, {"measurement": "degree of vacuolation, 1 μM, 48 h", "setting": "MDA-MB-231 cells", "value": "++"}, {"measurement": "degree of vacuolation, 10 μM, 24 h", "setting": "MDA-MB-231 cells", "value": "+++"}, {"measurement": "degree of vacuolation, 10 μM, 48 h", "setting": "MDA-MB-231 cells", "value": "+++"}]}
